The values below come from US11284835B2, “Method for assessing pain caused by administration of drug solution, and method for selecting drug solution administration” (TERUMO KABUSHIKI KAISHA, priority 2016, dated 2022).

For one data set, the system named is rat. Kind of data set: Electromyogram (EMG) of the myoelectric response caused by drug solution administration into the plantar subcutaneous of anesthetized rats. Type of data set: in vivo.
A further data set deals with human. To be noted: cited from earlier work.

Excerpt for rat: In the embodiment illustrated in FIG. 1, a subject (experimental animal) used for assessment of pain caused by administration of a drug solution is a rat 12. Conditions of the rat 12 that can be used are, for example, an age in range of 7 to 10 weeks old, a body weight in a range of 200 to 400 g, and a strain that is SD (other strains are also possible). An acclimation and quarantine period of the rat 12 is preferably five days or longer. An anesthesia mask 13 is attached to the rat 12, and inhalation anesthesia is performed.
In order to measure the pain caused by the administration of the drug solution, a myoelectric potential of the semitendinosus muscle 12b of the thigh of the rat 12 is recorded. At the time of recording the myoelectric potential, a needle-shaped measurement electrode 24 (for example, a bipolar hook electrode) is punctured under the semitendinosus muscle 12b to be placed, and a reference electrode 26 is pasted to a thoracic skin surface 12c. Potential signals from the measurement electrode 24 and the reference electrode 26 are amplified by a high-sensitivity bioelectric amplifier 28 and transmitted to a data collection device 30.
A rat 12 serving as a subject is prepared (a preparation step), and the rat 12 is subjected to inhalation anesthesia (an anesthesia step). Examples of an applicable inhalation anesthetic include isoflurane. […] Incidentally, it is preferable to heat the rat 12 with a warming mat to keep the body temperature constant during the anesthesia.
Next, the measurement electrode 24 is placed in the semitendinosus muscle 12b of the anesthetized rat 12 (a measurement electrode placement step). […] At this time, the thigh skin at a position where contraction has been recognized is incised by about 1 cm to expose the semitendinosus muscle 12b, and then, the measurement electrode 24 is inserted.
Thereafter, the anesthetic depth is kept constant. […]
Once such a myoelectric potential waveform is obtained, the measurement step is performed in order to assess (quantify) the pain caused by the drug solution administration. […]

Regarding `N[C@@H](CCC(=O)O)C(=O)O` [glutamic acid], the “pain (EMG intensity obtained from myoelectric response)” value with rat (plurality of different molar concentrations (FIG. 7B)) is “the pain increases as the molar concentration of glutamic acid increases”. Moreover, the “magnitude of pain (VAS)” value in the data set on human (plurality of different molar concentrations (FIG. 7A, created from source graph)) is given as “the pain increases as the molar concentration of glutamic acid increases”.
On to `[Cl-].[Na+]` [NaCl], for which the “magnitude of pain (EMG intensity)” value in the data set on rat (10% NaCl, plurality of different administration rates (FIG. 9B)) is “varies depending on a difference in the administration rate”. In addition, in the data set on rat (NaCl concentration 5% or more (FIG. 6B)), the “pain (EMG intensity obtained from myoelectric response)” value is on record as “significantly increases”. In addition, the “magnitude of pain (VAS) over time” value in the data set on human (5% NaCl injected (FIG. 6A)) is “great pain”.
